Measured values reported in patent publication US20140329776A1, “Mitochondria-Targeted Antioxidants for Treatment of Age-Related Brain Disorders” (MITOTECH S.A., priority 2011, published 2014).

Key:
[1] = system: Wistar rats; test: muscle strength measurement 4 hours after ethanol narcosis; type: in vivo, rat; conditions: SkQ1 250 nM after ethanol narcosis; p<0.05
Description: FIG. 6 is a graphic representation showing muscle strength measurement 4 hours after ethanol narcosis in % to intact control. *−p<0.05 to negative control, #−p<0.05 to intact control;
(§1) In these experiments, 6 groups of experimental animals (Wistar rats) were used. (1) The Intact Control group (n=12), had no ethanol narcosis, and were orally administered a normal isotonic 0.9% NaCl solution; (2) the Negative Control group (n=12) was orally administered a normal physiological solution after ethanol narcosis; (3) The SkQ1 50 nM control group (n=12) was orally administered SkQ1 in a concentration 50 nM after ethanol narcosis; (4) The SkQ1 250 nM control group (n=12) was orally administered SkQ1 in a concentration of 250 nM after ethanol narcosis; (5) The SkQ1 1250 nM control group (n=12) was orally administered SkQ1 in a concentration of 1250 nM after ethanol narcosis; (6) the SkQ1 1250 nM intr control group (n=13) was intraperitoneally administered SkQ1 in a concentration of 1250 nM after ethanol narcosis.
(§2) In the Negative Control group ethanol intoxication caused a decrease of locomotor activity compared to Intact Control group: decreased track length (p<0.05), movement time (p<0.05), mean speed (p<0.05) and increased immobilization time (p<0.05) (FIG. 4). […]

[2] = system: chronically alcoholised rats; test: consumption of 15% ethanol solution after deprivation; body weight; type: in vivo, rat
Description: FIG. 12 is a graphic representation showing the consumption of 15% ethanol solution after deprivation in ml (*−p<0.01 on 1st day of alcoholisation SKQ-1 to negative control; #—p<0,05 for average ethanol consumption for 1-36 days SKQ-1 to negative control).
(§3) Male albino rats had free access to a 15% ethanol solution, as well as to food and water. After 6 months of alcoholisation, animals with average consumption more than 11 ml of 15% ethanol solution were divided into two even groups and subjected to the following treatment. The Negative Control group (n=16) (chronically alcoholised rats) were orally administered 1 ml per kg of isotonic 0.9% NaCl solution every two days for 20 days during alcohol deprivation. The SkQ1 group (n=17) (chronically alcoholised rats) were orally administered 1 ml per kg of SkQ1 250 nM solution every two days for 20 days during alcohol deprivation. The Intact Control group (n=10) (animals had no previous contact with ethanol) were orally administered 1 ml per kg of normal physiological solution every two days for 20 days.
After behavioral testing, ethanol consumption of 15% solution was measured for 45 days. The level of ethanol consumption during first day in the SkQ1 group was lower (p<0.01) than in the Negative Control group. The decreased ethanol consumption during first day indicates lower level of ethanol craving after SkQ1 administration. […]

[3] = system: chronically alcoholised rats; test: open field test of chronically alcoholised rats; type: in vivo, rat; conditions: vs Negative Control
Description: FIG. 9 is a graphic representation showing behavior parameters in the open field test of chronically alcoholised rats in % to intact control. (*−p<0.05; **—p<0.005 to negative control; #—p<0.05, ##—p<0.01, to intact control);
as §3
(§4) After this course of drug administration, the effect on behavioral parameters was observed using the open field test, the elevated plus maze test, and the Porsolt forced swimming test.
In the open field test, treated animals had increased number of rearing ((p<0.05), number of entrance in central zone (p<0.01), movement time in central zone (p<0.05)) compared to the Negative Control group (FIG. 9. Therefore, SkQ1 increases exploratory activity during alcohol deprivation.

[4] = system: chronically alcoholised rats; test: elevated plus maze test of chronically alcoholised rats; type: in vivo, rat; conditions: SkQ1 250 nM solution orally every two days for 20 days, vs Negative Control
Description: FIG. 10 is a graphic representation showing behavior parameters in the elevated plus-maze test of chronically alcoholised rats in % to intact control. (*−p<0.05; ** −p<0.005 to negative control; #—p<0.05, ##—p<0.01, to intact control);
as §3, §4

[5] = system: hippocampal slice neurons; test: long-term potentiation (LTP) of hippocampal slices treated with Aβ after in vivo treatment; set-up: species or system rat
Description: FIG. 3B is a graphic representation showing the LTP caused by in vitro addition of Aβ, where the decay of LTP of hippocampal slice neurons characterized by a decrease of pop-spike amplitude (%) in a hippocampal slice treated with Aβ.
SkQR1 Aβ was added 15 min before the LTP induction with high-frequency electric stimulation (arrow). The decay of LTP (i.e. decrease of pop-spike amplitude) in a hippocampal slice treated with Aβ can be prevented by SkQR1 treatment.
FIG. 16 is a bar graph comparing the neuroprotective effects of preferred SkQ mitochondria-targeted antioxidants of the invention when administered in vivo in a model of Alzheimer disease.
As a model of cell memory, an electric response of a hippocampal slice (long-term potentiation, LTP) was used (Malenka, et al., Science 285:1870-1874 (1999)). A direct experiment was performed showing the prevention of Aβ toxicity in hippocampus by in vivo treatment of rats with 1 μmol SkQR1 per kg of body weight. The compound was injected intraperitoneally into the animal 24 hours before hippocampal slices were obtained to measure LTP. Some slices were pretreated with Aβ for 15 minutes. As is seen in FIG. 3B, Aβ impaired LTP relative to untreated control.
FIG. 16 provides a comparison of the neuroprotective effects of SkQ1, SkQR1 and C12TPP based on the LTP signal in neurons of hippocampal slices. Ab stands for beta-amyloid treatment. […] All SkQs and C12TPP were administered in vivo to rats prior the extraction of hippocampus.

[6] = system: Wistar rats; test: open field test 4 hours after ethanol narcosis; type: in vivo, rat; conditions: SkQ1 250 nM orally after ethanol narcosis; vs negative control, p<0.05
Description: FIG. 5 is a schematic representation of the behavior parameters in the open field test 4 hours after ethanol narcosis of all groups in % to intact control. (*−p<0.05 for SKQ-1 250 nM compared to negative control);
as §1, §2

In the case of `CC1=C(C)C(=O)C(CCCCCCCCCC[P+](c2ccccc2)(c2ccccc2)c2ccccc2)=CC1=O` [SkQ1, plastoquinonyl decyltriphenyl-phosphonium], the muscle strength [1] was “increasing”, the “average ethanol consumption during the next month, lower than Negative Control” value ([2]; p<0.05) was about 2 × and the “level of ethanol consumption during first day” value ([2]; vs Negative Control, p<0.01) was “lower”. For the same compound, the number of rearing ([3]; 1 ml per kg SkQ1 250 nM solution orally every two days for 20 days during alcohol deprivation, p<0.05) was “increased”, the “number of entrance in central zone” value ([3]; SkQ1 250 nM solution orally every two days for 20 days, p<0.01) was “increased” and the “movement time in central zone” value ([3]; SkQ1 250 nM solution orally every two days for 20 days, p<0.05) was “increased”. The “number of looking out from closed arms” value [4] was “increased”, the rearing ([4]; p<0.005) was “increased” and the “movement time in central zone” value ([4]; p<0.05) was “increased”. The “track length in closed arms” value ([4]; p<0.05) was “increased”, the “neuroprotective activity based on LTP signal, model of Alzheimer disease” value ([5]; administered in vivo to rats prior to extraction of hippocampus, beta-amyloid treatment, FIG. 16) was “neuroprotective activity” and the “impairment (decay) of LTP caused by Aβ” value ([5]; in vivo treatment (SkQR1 1 μmol/kg i.p. 24 hours before slices), Aβ added to slices for 15 min) was “prevents decay”. For the same compound, the immobilization time [6] was “decreasing” and the track length [6] was “increasing”.
